# Assay results from patent US20250172543A1, “HIGH DENSITY 3D HEPATOCYTE SPHEROID PLATFORM FOR DRUG ADME STUDIES” (Discovery Life Sciences, LLC, priority 2018, published 2025).
# Like-named read-outs stand apart in the source and are kept apart here.
# Assays:
# [1] = test system: 3D primary human hepatocyte (PHH) high density spheroids; assay: 3D PHH high density spheroid drug clearance assay; assay type: in vitro ADME; conditions: 0.1 μM substrate, 6-well spheroid insert, in vivo hepatic clearance predicted from in vitro Clint by well stirred model
# Method: Plating PHHs onto 6-well high density spheroid insert (−700 microwells/insert): PHH were thawed as standard procedure and resuspended in WEM plating medium. PHH cells were counted and the cell density was adjusted to 0.35e6/ml using WEM plating medium. For plating PHHs, the pipet aid was set at low disperse speed. Right before plating, a 5 mL pipet was used to remove most medium from pre-wetted inserts. Even cell suspensions were prepared by gently pipetting up and down. Using a 5 mL pipet, with the position the tip against the side wall at the bottom, 2 mL of cell suspension (700K cells, -1000 cells/microwell) was added to a 6-well spheroid insert. The plate was allowed to sit for 15-20 min in the hood. The plates were checked under a microscope with a 4x objective, to ensure that that a similar number of cells have settled into each microwell.
# Half medium change with WME+medium: The pipet aid was at low disperse speed. Using a 5 mL pipet, 1 mL of old medium was slowly from each insert. A 1000 μL pipet tip was positioned against the top part of the insert sidewall, and 1 mL pre-warmed WME+medium was slowly added with the medium being allowed to flow down the sidewall. After waiting 5-10 minutes between each half medium change, the half medium change was repeated 3 more times. The PHHs were checked under a microscope for spheroid formation.
# Incubate the candidate compound(s) to be tested for clearance with the cultured spheroids: The pipet aid was set at low disperse speed. Using a 5 mL pipet, 1 mL of old medium was slowly removed from each insert. […] After 5-10 minutes, the culture was placed back to 37° C. incubator. The timer for incubation was started at this point.
# Sampling: 40 μL/well stop solutions Labetalol (0.2 uM IN 0.05% FA/50%ACN) was aliquoted in an assay plate and kept on ice. At the desired assay incubation time (0 hr, 1 hr, 2 hrs, 4 hrs, 6 hrs, 12 hrs, 24 hrs, 36 hrs, 48 hrs, 3 days, 4 days, 5 days, 6 days, 7 days, 8 days, 9 days, 10 days, 11 days, 12 days, 13 days 14 days, 3 weeks, 4 weeks, or any value or range there between), 40 μL sample were drawn from each incubation well, mixed well with stop solution, and stored at −80° C.
# LC/MS analysis: The amount of the candidate compound was measured using liquid chromatography/mass spectrometry, as is known in the art.
# Calculate the elimination rate constant (ke1): The percentage of the candidate compound remaining in the culture was calculated by dividing the mass spectrometry peak area ratio at certain incubation times to that at time zero, as is known in the art. The natural logarithm of the percentage of the remaining candidate compound was plotted against time, and the kelwas calculated as the absolute value from the slope.
# Calculate the depletion half-lives of the candidate compounds: Once the kel was determined for the candidate compound, the depletion half-life of the candidate compound was determined by Equation 1, as is known in the art.
# Calculate the;n vitro clearance (Clint) of the candidate compound: The in vitro clearance of the candidate compounds was calculated using the in vitro half-lives from Equation 1 using the scaling factors of Equation 2, as is known in the art.
# Calculate predicted in vivo hepatic clearance (CLh): The in vivo hepatic clearance was calculated from the in vitro clearance determined by Equation 2 using the well stirred model Equation 3, as is known in the art.
# [2] = actual in vivo clearance for comparison; cited from earlier work
# [3] = test system: PHHs grown in suspension format; assay: Clearance measurement with PHHs grown in suspension format; conditions: FIGS. 8A-I
# [4] = test system: PHHs grown in suspension format; conditions: human
Compound,"Predicted CLh, 3D HD Spheroids [1]",In Vivo CLnonrenal [2],Measurability of clearance in suspension hepatocytes [3],Measurability of clearance in suspension hepatocytes [4]
Cc1nnc2n1-c1ccc(Cl)cc1C(c1ccccc1)=NC2 [Alprazolam],0.45,0.61,unable to measure,–
CN1C(=O)CN=C(c2ccccc2)c2cc(Cl)ccc21 [Diazepam],–,0.53,–,–
CCC1=C(C)CN(C(=O)NCCc2ccc(S(=O)(=O)NC(=O)N[C@H]3CC[C@H](C)CC3)cc2)C1=O [Glimepiride],0.04,1.12,–,unable to measure
C[C@]12C=CC(=O)C=C1CC[C@@H]1[C@@H]2[C@@H](O)C[C@@]2(C)[C@H]1CC[C@]2(O)C(=O)CO [Prednisolone],0.60,1.44,–,unable to measure
CCCCNC(=O)NS(=O)(=O)c1ccc(C)cc1 [Tolbutamide],0.22,–,–,unable to measure
CC(=O)CC(c1ccccc1)c1c(O)c2ccccc2oc1=O (centres unmarked) [Warfarin],0.01,–,–,unable to measure
